The target of assay [1] is T1, PD-L1 (Homo sapiens, UniProt Q9NZQ7).
T1 construct: expressed in transfected cells; host or cells: Huh7 cells, transfected; captured on streptavidin agarose
Put plainly: Cholesterol binding to PD-L1. Particulars: summary statement, cholesterol binding to TM4SF5 and PD-L1. The method, then:
(a) Expression vectors for a control vector, TM4SF1, TM4SF5 WT, and R113Q, C118/145A, H127A, and N138A mutants of TM4SF5 were injected into the HEK293FT cell line, which was confirmed not to express TM4SF5, and allowed to express for 48 hours. (b) Huh7KO cell lines, in which TM4SF5 was knocked out in Huh7, were stably infected with a retrovirus encoding pBabe-EV or pBabe-TM4SF5-HA. […] (d) Strep-EV, Strep-PD-L1 WT, and 3NQ (N192/200/219Q) and 4NQ (N35/192/200/219Q) N-glycosylation mutants were injected into Huh7 cells to be expressed. (e) Strep-EV and Strep-TM4SF5 expression vectors were injected into Huh7KO cells and allowed to express for 48 hours. (a-e) After obtaining cell extracts, TM4SF5-strep, TM4SF5-HA, or PD-L1-strep was pulled down with streptavidin agarose resin or anti-HA antibody from extracts containing 0.2, 0.25, or 1.0 mg of protein for each experimental condition. […] Alternatively, they were treated with 1,2-^3H-Cholesterol (50 µM) alone or together with ST-3-001 (negative control compound), ST-5-001, or ST-5-002 (2.5 µM each) for 1 hour (c-e). For the experimental samples of each condition, radioactive isotope values were repeatedly measured using a TriCarb scintillation counter (PerkinElmer, Waltham, MA).

Assay [2] deals with TM4SF5-non-expressing cells (SNU449Cp). The experiment in a line: Western blotting for signaling factor phosphorylation in TM4SF5-non-expressing cells. Format: cell-based, human. On the procedure: Cell extracts were obtained from cells grown to a density of 70-80% without any treatment, or from cells treated with vehicle DMSO or drugs at the given concentrations for 24 hours. For the extract of hepatocytes or liver cancer cells, a lysis buffer (150 mM NaCl, 1% NP-40, 50 mM Tris-HCl, 0.25% sodium deoxycholate, pH 7.4) including a protease inhibitor cocktail (GenDEPOT) was used. In addition, after washing animal liver tissue twice with PBS, SDS, Na3VO4, and protease inhibitor cocktails (GenDEPOT) were added to a lysis buffer [50 mM Tris-HCl, pH 7.4, 1% NP40, 0.25% sodium deoxycholate, 150 mM NaCl, 1 mM EDTA (based on 500 ml)], followed by treatment at 4°C for 15 minutes. After centrifugation at 13,000 rpm at 4°C for 30 minutes, only the supernatant was transferred to a new microcentrifuge tube. After quantification using BCA reagent (Thermo Scientific), a 4 × sample buffer [100% glycerol 4 ml, Tris-HCl, pH 6.8, 2.4 ml, SDS 0.8 g, Bromophenol blue 4 mg, betamercaptoethanol 0.4 ml, H2O 3.1 ml (based on 10 ml)] was added, followed by boiling at 100°C for 5 minutes. After performing SDS-PAGE electrophoresis with the above samples and transferring them to Nitrocellulose Membranes Protran™ nitrocellulose membranes (Whatman), pre-treatment was performed with 5% skim milk for 1 hour. After pre-treatment, primary antibodies of p-FAK(Y861) (SC-16663), p-FAK(Y577) (SC-16665), c-Src (SC-8056), STAT3 (SC-8019), p-AKT 1/2/3(S473) (SC-7985), STATS (SC-835), Laminin γ2 (SC-393225), COL1A1 (SC-28657), CCL5(RANTES) (SC-514019) CCL20(MIP-3α) (SC-517441), SIRT1 (SC-74465), ChREBP (SC-515922), SREBP1 (SC-366513), DGAT1 (SC-271934), DGAT2 (SC-293211), MICA/B (SC-137242), SLAMF7 (SC-390840), α-tublin (SC-5286), β-actin (SC-47778), FUCA (SC-365496) (the above from Santa Cruz Biotech, USA), p-FAK(Y397) (cat # 611723), FAK (cat # 610088), p27 (cat # 610242) (the above from BD Transduction, USA), p-FAK(Y925) (#3284) p-c-Src(Y416) (#2101), p-STAT3(Y705) (#9145), p70S6K1 (#9202), p-p70S6K1(T389) (#9205), p-STAT5(Y694) (#9314), ACC (#3676), FASN (#3189), CPT1A (#12252), p-ACC(S79) (#11818), HA (#3724), PD-L1 (#13684), PD-1 (#86163), p-ERK1/2(T202/Y204) (#9101s), ERK1/2 (#9102s) (the above from Cell Signaling Tech., USA), pS10p27(S10) (ab62364), human SLAMF6 (ab224201), TIGIT (ab233404), CD34 (ab81289) (the above from Abcam, UK), mouse SLAMF6 (PA5-87823), NKG2D (PA5-102038) (the above from Thermofisher, USA), α-SMA (Sigma Aldrich, A5228), CCL2 (Invitrogen, MA5-17040), and CD155(PVR) (Biolegend, 337601), HA (Biolegend, USA), Strep-HRP(horse-radish peroxidase), StrepMAB-HRP (IBA, USA), AFP (FineTest, FNab00203) were reacted at 4°C for 15 hours. The next day, secondary antibodies were reacted, and development was performed on X-ray film using ECL (Pierce, USA). Anti-TM4SF5C-ter (epitope region of RKKQDTPH^197) and anti-TM4SF5EC2 (CLMNGEWGYHFEDTAGA^130) were custom-made at a professional antibody production company (Pro-Sci, Poway, CA, USA).
(a) Cell extracts were obtained after treating TM4SF5-non-expressing cells (SNU449Cp) and TM4SF5-expressing cells (SNU449T7) with vehicle (DMSO), ST-2-001, or an ST-2-001-based derivative drug at a concentration of 5 µM for 24 hours. (b) Cell extracts were obtained after treating SNU449Cp and SNU449T7 with DMSO, ST-2-001, ST-3-001, ST-3-006, ST-3-007, ST-3-010, or ST-3-011 at a concentration of 5 µM for 24 hours. (c) Cell extracts were obtained after treating SNU449Cp and SNU449T7 with DMSO, ST-2-001, ST-3-006, or ST-3-011 at the given concentrations for 24 hours. (a-c) Using the cell extracts obtained after the drug treatment, Western blotting was performed for signaling factors whose phosphorylation and activity increase in a TM4SF5-expression dependent manner.

Where [3] appears, read: 5 µM, 24 hours (FIG. 9a-b, blue-lined boxes).
[4] abbreviates: given concentrations, 24 hours (FIG. 9c).

Experimental findings from EP4772500A1, “NOVEL ISOXAZOLE COMPOUND AS TM4SF5-SPECIFIC INHIBITOR AND USE THEREOF” (Seoul National University R&DB Foundation, priority 2023, dated 2025) are described below.

T1 sequence (Q9NZQ7 19-290): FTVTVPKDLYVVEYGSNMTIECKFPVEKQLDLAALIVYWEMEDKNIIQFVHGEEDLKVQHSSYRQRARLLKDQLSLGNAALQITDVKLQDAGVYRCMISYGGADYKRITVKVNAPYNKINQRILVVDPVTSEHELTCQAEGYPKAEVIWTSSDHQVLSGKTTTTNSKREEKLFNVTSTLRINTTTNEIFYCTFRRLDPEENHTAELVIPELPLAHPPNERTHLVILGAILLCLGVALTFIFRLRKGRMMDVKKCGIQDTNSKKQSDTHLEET

Take `CC(=O)Nc1ccc(-c2cc(-c3ccc(O)cc3)no2)cc1` [ST-5-001, N-(4-(3-(4-hydroxyphenyl)isoxazole-5-yl)phenyl)acetamide]: the “binding of cholesterol to PD-L1” value in assay [1] is “inhibit”.
Take `CC(=O)Nc1ccc(-c2cc(-c3ccc(F)cc3)on2)cc1` [ST-3-006, N-(4-(5-(4-fluorophenyl)isoxazole-3-yl)phenyl)acetamide]: the “phosphorylation of some signaling factors” value (“phosphorylation” below) in assay [2] (setting [3]) and in assay [2] (setting [4]) was “increased” in each case.
As to `COc1ccc(-c2cc(-c3ccc(NC(C)=O)cc3)no2)cc1` [ST-2-001, N-(4-(5-(4-methoxyphenyl)isoxazole-3-yl)phenyl)acetamide], the “phosphorylation” value in assay [2] (setting [4]) is “increased”.
As to `COc1ccc(-c2cc(-c3cccc(NC(C)=O)c3)no2)cc1` [ST-3-011, N-(3-(5-(4-methoxyphenyl)isoxazole-3-yl)phenyl)acetamide], the “phosphorylation” value in assay [2] (setting [3]) and in assay [2] (setting [4]) was “increased” throughout.
For the molecule `Cc1ccc(C(=O)Nc2ccc(-c3cc(-c4ccc(O)cc4)no3)cc2)cc1` [ST-5-002, N-(4-(3-(4-hydroxyphenyl)isoxazole-5-yl)phenyl)-4-methylbenzamide], the “binding of cholesterol to PD-L1” value in assay [1] was “inhibit”.
